Test [1] addresses T1, purified human Factor XIa (Homo sapiens, UniProt P03951).
T1 construct: purified human Factor XIa; purchased Sekisui Diagnostics
In words: Factor XIa Assay. As to conditions: purified human Factor XIa 40 pM; substrate Z-Gly-Pro-Arg-AFC 100 μM; 50 mM HEPES pH 7.4; read-out: Hu FXIa Ki. The test is classed as biochemical. Put shortly:
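Purified human FXIa at 40 pM, in 50 mM HEPES pH 7.4 with 150 mM NaCl, 5 mM CaCl2 and 0.1% PEG 8000, was preequilibrated with inhibitor. Initial hydrolysis rates of Z-Gly-Pro-Arg-AFC were then measured at room temperature or 37 °C. Ki was derived from Vo/Vi = 1 + [I]/Ki, assuming competitive inhibition.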

In test [2] the target is T2, purified Human plasma kallikrein (Homo sapiens, UniProt P03952).
T2 construct: yields a heavy chain (371 amino acids) and a light chain (248 amino acids); purchased Enzyme Research Laboratories
Kind of test: Kallikrein Assay. Type of test: biochemical. As to conditions: purified Human plasma kallikrein 0.5 nM; substrate Acetyl-K-P-R-AFC; 50 mM HEPES pH 7.4; Ki from IC50 by Cheng Prusoff equation; read-out: Hu P. Kallikrein. How it is done:
The effectiveness of a compound of the present invention as an inhibitor of Kallikrein can be determined using a relevant purified serine protease, and an appropriate synthetic substrate. The rate of hydrolysis of the chromogenic or fluorogenic substrate by the relevant serine protease was measured both in the absence and presence of compounds of the present invention. Assays were conducted at room temperature or at 37° C. […] A decrease in the rate of fluorescence change in the presence of inhibitor is indicative of enzyme inhibition. Such methods are known to one skilled in the art. The results of this assay are expressed as the inhibitory constant, Ki. Kallikrein determinations were made in 50 mM HEPES buffer at pH 7.4 containing 150 mM NaCl, 5 mM CaCl2, and 0.1% PEG 8000 (polyethylene glycol; Fisher Scientific). Determinations were made using purified Human plasma kallikrein at a final concentration of 0.5 nM (Enzyme Research Laboratories) and the synthetic substrate, Acetyl-K—P-R-AFC (Sigma # C6608) at a concentration of […]. Activity assays were performed by diluting a stock solution of substrate at least tenfold to a final concentration ≤0.2 Km into a solution containing enzyme or enzyme equilibrated with inhibitor. Times required to achieve equilibration between enzyme and inhibitor were determined in control experiments. The reactions were performed under linear progress curve conditions and fluorescence increase measured at 405 Ex/510 Em nm. Values were converted to percent inhibition of the control reaction (after subtracting 100% Inhibition value). IC50 was determined by inflection point from a four parameter logistic curve fit. Ki was calculated using the Cheng Prusoff equation, Ki=IC50/(1+([S]/Km)). The activities shown by this assay indicate that the compounds of the invention may be therapeutically useful for treating or preventing various cardiovascular and/or cerebrovascular thromboembolic conditions in patients suffering from unstable angina, acute coronary syndrome, refractory angina, myocardial infarction, transient ischemic attacks, atrial fibrillation, stroke such as thrombotic stroke or embolic stroke, venous thrombosis, coronary and cerebral arterial thrombosis, cerebral and pulmonary embolism, atherosclerosis, deep vein thrombosis, disseminated intravascular coagulation, and reocclusion or restenosis of recanalized vessels.

Ki data for eight compounds are collected here from patent publication US10344039B2, “Macrocyclic spirocarbamate derivatives as factor XIa inhibitors, pharmaceutically acceptable compositions and their use” (MERCK SHARP & DOHME CORP., priority 2015, dated 2019).

pKi: −log10 of the molar value.

T1 sequence (P03951 388-625 limits assumed): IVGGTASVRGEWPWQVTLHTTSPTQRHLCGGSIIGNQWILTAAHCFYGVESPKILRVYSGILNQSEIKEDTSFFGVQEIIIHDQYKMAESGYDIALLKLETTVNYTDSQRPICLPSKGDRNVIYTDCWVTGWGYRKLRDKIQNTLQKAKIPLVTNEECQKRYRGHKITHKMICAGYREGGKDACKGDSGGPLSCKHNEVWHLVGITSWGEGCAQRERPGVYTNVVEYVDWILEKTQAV
T1 sequence (P03951 19-387 partner limits assumed): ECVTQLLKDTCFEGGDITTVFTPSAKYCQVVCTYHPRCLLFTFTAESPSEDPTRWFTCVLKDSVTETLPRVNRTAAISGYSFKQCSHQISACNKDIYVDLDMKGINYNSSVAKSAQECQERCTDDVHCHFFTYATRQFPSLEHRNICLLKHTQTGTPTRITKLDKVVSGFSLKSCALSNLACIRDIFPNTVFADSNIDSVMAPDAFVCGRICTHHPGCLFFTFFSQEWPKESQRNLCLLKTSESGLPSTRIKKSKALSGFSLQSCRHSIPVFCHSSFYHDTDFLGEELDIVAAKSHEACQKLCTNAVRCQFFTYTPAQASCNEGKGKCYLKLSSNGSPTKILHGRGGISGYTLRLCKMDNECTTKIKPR
T2 sequence (P03952 391-638 limits assumed): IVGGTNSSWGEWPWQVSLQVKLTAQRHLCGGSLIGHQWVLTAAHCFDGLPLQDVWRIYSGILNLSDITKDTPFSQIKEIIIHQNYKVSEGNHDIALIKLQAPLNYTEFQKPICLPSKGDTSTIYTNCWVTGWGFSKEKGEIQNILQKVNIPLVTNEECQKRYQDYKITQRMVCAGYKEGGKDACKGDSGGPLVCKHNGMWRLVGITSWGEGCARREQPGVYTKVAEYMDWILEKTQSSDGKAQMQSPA
T2 sequence (P03952 20-390 partner limits assumed): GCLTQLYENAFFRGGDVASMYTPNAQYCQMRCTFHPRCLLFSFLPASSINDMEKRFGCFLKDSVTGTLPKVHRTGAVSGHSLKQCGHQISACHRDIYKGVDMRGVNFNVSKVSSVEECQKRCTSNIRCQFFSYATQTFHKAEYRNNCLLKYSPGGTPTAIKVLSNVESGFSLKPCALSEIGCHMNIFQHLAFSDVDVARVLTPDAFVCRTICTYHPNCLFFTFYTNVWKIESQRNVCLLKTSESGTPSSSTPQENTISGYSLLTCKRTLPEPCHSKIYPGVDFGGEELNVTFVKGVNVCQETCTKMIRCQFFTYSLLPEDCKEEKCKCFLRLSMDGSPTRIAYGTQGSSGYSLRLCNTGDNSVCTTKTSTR

On to `COC(=O)Nc1ccc2c(c1)NC(=O)[C@H](C)CCCC(C(=O)N1CCC[C@@]3(C1)OC(=O)Nc1ccc(Cl)c(F)c13)c1nc-2c(Cl)[nH]1` (stereo partly drawn) [Example 10, methyl ((5R,Z)-1^5-chloro-9-((R)-6-chloro-5-fluoro-2-oxo-1,2-dihydrospiro[benzo[d][1,3]oxazine-4,3′-piperidine]-1′-carbonyl)-5-methyl-4-oxo-1^1H-3-aza-1(4,2)-imidazola-2(1,2)-benzenacyclononaphane-2^4-yl)carbamate], for which the pKi in test [1] was 9.17; in test [2], 9.02.
Consider `COC(=O)Nc1ccc2c(c1)NC(=O)CCCC[C@@H](C(=O)N1CCC[C@@]3(C1)OC(=O)Nc1ccc(Cl)c(F)c13)c1cc(F)cc-2c1` [Example 30b, methyl ((R)-9-((R)-6-chloro-5-fluoro-2-oxo-1,2-dihydrospiro[benzo[d][1,3]oxazine-4,3′-piperidine]-1′-carbonyl)-1^5-fluoro-4-oxo-3-aza-1(1,3),2(1,2)-dibenzenacyclononaphane-2^4-yl)carbamate], for which the pKi in test [1] was 7.16; in test [2] it was 8.82.
In the case of `COC(=O)Nc1ccc2c(c1)NC(=O)CCCCC(C(=O)N1CCC[C@@]3(C1)OC(=O)Nc1ccc(Cl)c(F)c13)c1nc-2c(Cl)[nH]1` (mixture of isomers) [Example 8, methyl ((Z)-1^5-chloro-9-((R)-6-chloro-5-fluoro-2-oxo-1,2-dihydrospiro[benzo[d][1,3]oxazine-4,3′-piperidine]-1′-carbonyl)-4-oxo-1^1H-3-aza-1(4,2)-imidazola-2(1,2)-benzenacyclononaphane-2^4-yl)carbamate], the pKi in test [1] is 9.60; in test [2], 9.25.
For `COC(=O)Nc1ccc2c(c1)NC(=O)CCCC[C@@H](C(=O)N1CC[C@@]3(C1)OC(=O)Nc1ccc(Cl)cc13)c1nc-2c(Cl)[nH]1` (single isomer, unassigned) [Example 6a] the same measures were 9.43 and 9.16.
For `COC(=O)Nc1ccc2c(c1)NC(=O)CCCC[C@@H](C(=O)N1CCC[C@@]3(C1)OC(=O)Nc1ccc(Cl)cc13)c1nc-2c[nH]1` [Example 3a, methyl ((R,Z)-9-((R)-6-chloro-2-oxo-1,2-dihydrospiro[benzo[d][1,3]oxazine-4,3′-piperidine]-1′-carbonyl)-4-oxo-1^1H-3-aza-1(4,2)-imidazola-2(1,2)-benzenacyclononaphane-2^4-yl)carbamate] the same measures were 8.56 and 9.09.
For `COC(=O)Nc1ccc2c(c1)NC(=O)CC/C=C/C[C@@H](C(=O)N1CCC[C@@]3(C1)OC(=O)Nc1ccc(Cl)c(F)c13)c1cc-2ccn1` [Example 21a, methyl ((R,E)-10-((R)-6-chloro-5-fluoro-2-oxo-1,2-dihydrospiro[benzo[d][1,3]oxazine-4,3′-piperidine]-1′-carbonyl)-4-oxo-3-aza-1(4,2)-pyridina-2(1,2)-benzenacyclodecaphanen-2^4-yl)carbamate] the same measures were 7.23 and 7.77.
Take `O=C1CCCCC(C(=O)N2CC[C@@]3(C2)OC(=O)Nc2ccc(Cl)c(F)c23)c2cc(ccn2)-c2cc3ccc(=O)[nH]c3cc2N1` (mixture of isomers) [Example 26, 3-((R)-6-chloro-5-fluoro-2-oxo-1,2-dihydrospiro[benzo[d][1,3]oxazine-4,3′-pyrrolidine]-1′-carbonyl)-1^1,1^2-dihydro-9-aza-1(6,7)-quinolina-2(4,2)-pyridinacyclononaphane-1^2,8-dione]: the pKi in test [1] was 8.41; in test [2], 8.91.
Taken in the same sequence, the figures for `O=C1CCCCC(C(=O)N2CCC[C@@]3(C2)OC(=O)Nc2ccc(Cl)c(F)c23)c2cc(ccn2)-c2cc3ccc(=O)[nH]c3cc2N1` (mixture of isomers) [Example 27, 3-((R)-6-chloro-5-fluoro-2-oxo-1,2-dihydrospiro[benzo[d][1,3]oxazine-4,3′-piperidine]-1′-carbonyl)-1^1,1^2-dihydro-9-aza-1(6,7)-quinolina-2(4,2)-pyridinacyclononaphane-1^2,8-dione] were 7.89 and 9.22.
